Measured values taken from PMC7933130 (Nature, 2021).

Molecular target: NaCT (Homo sapiens, UniProt Q86YT5)
Experiment: cryo-EM structure at […] Å
Type: binding

Sequence of NaCT (Q86YT5 whole entry): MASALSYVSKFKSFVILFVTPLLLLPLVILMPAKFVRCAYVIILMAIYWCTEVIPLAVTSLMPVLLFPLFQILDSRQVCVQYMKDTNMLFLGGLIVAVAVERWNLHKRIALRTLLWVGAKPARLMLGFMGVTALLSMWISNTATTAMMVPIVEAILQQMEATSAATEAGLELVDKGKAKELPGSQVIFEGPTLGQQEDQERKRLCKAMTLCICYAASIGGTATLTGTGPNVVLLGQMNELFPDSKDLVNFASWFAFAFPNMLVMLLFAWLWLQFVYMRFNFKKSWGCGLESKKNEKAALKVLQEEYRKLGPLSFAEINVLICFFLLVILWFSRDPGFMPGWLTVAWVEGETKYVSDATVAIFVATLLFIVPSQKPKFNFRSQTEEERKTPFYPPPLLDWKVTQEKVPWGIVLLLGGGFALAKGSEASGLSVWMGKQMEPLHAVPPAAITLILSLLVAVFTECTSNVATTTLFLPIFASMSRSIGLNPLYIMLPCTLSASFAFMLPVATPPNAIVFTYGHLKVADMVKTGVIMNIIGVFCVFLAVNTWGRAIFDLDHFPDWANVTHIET

Kd: 148 ± 28 µM
SMILES: O=C(O)CC(O)(CC(=O)O)C(=O)O [citrate]
